Patent publication US11591300B2, “Oxazole containing compounds as activators of IDO1 and AhR” (The Brigham and Women's Hospital, Inc., priority 2017, dated 2023)

Tests used:
[1] = test system: MODE-K cells; assay: CD1d-restricted IL-10 production in MODE-K:NKT cell hybridoma co-culture; format: cell-based, mouse; conditions: for effect of the supplement on IEC responses to oxazolone (CD1d-restricted IL-10 production): tryptophan-deficient media, oxazolone stimulation
[2] = test system: MODE-K cells; assay: Relative transcript abundance of target genes in MODE-K cells conditioned with compounds; conditions: for Mttp transcripts / Ido1 transcripts: MODE-K cells conditioned with compound, normalized to β-actin
Text: 4-ethoxymethylene-2-phenyl-2-oxazol-5-one, (referred to as oxazolone, FIG. 1A) has been widely utilized in models of contact hypersensitivity and when applied to the mucosa has been proposed to cause colitis through its properties as a hapten (Gorbachev and Fairchild 2001). However to date there is limited evidence for hapten-specific antibody production or responses following topical oxazolone sensitization or hapten modified autologous proteins or luminal antigens identified at mucosal sites (Singleton et al. 2016, Yanaba et al. 2008, Wirtz et al. 2007). […] It was then determined whether oxazolone could affect the expression of these transcripts in the intestinal epithelium in a cell intrinsic manner by directly stimulating an immortalized intestinal epithelial cell line (IEC) derived from mouse small intestine, MODE-K, with oxazolone.
To test this, a systematic in vitro system was devised to assess transcriptional and CD1d-restricted responses in IECs in response to stimulation with dietary OxC structures, including 2,4,5-trimethyl-2,5-dihydro-1,3-oxazole (referred to as TMO, FIG. 1A) found in coffee, peanuts, meats and utilized as a food additive, which lacks the 2-phenyl ring, 5-ketone, and 4-ethoxymethylene present in oxazolone (Vitzthum et al. 1975, Stoffesima et al. 1968, Lee et al. 1981, Chang et al. 1968, Ho and Hartman 1968).

[3] = test system: primary hepatocytes; assay: IL-10 production from primary hepatocytes co-cultured with 24.7 iNKT hybridoma; conditions: response to iNKT cells in the presence of α-GC
[4] = test system: C57Bl/6 mice; assay: Intra-rectal administration, colonic inflammation in vivo; parameters: species or system mouse
Description: It was tested whether a dietary sourced minimal oxazole structure was sufficient to induce intestinal inflammation in vivo. […] To confirm this, the ability of oxazolone skin pre-sensitization to affect the responses to rectal challenge with TMO and vice-versa (FIG. 9D).
Next, it was tested whether B17 microcin derivatives could induce intestinal inflammation in vivo. Therefore, adequate quantities of a minimal B17 derivative (termed frag-oz, FIG. 2D) were synthesized to perform in vivo experiments and challenged animals via intra-rectal administration. […] These studies identify an oxazole containing microbial mimic that promotes CD1d-dependent intestinal inflammation independent of its classical anti-microbial activity.
These studies reveal a novel role for epithelial derived AhR signals in promoting mucosal inflammation when exposed to OxC.

[5] = Wambaugh et al. 2014; cited from earlier work
[6] = test system: IECs; assay: LC-MS of deuterated L-trp (D5-Trp) metabolites in IEC lysates; format: cell-based; conditions: within 6 hours of exposure
Description: IDO1 is a rate-limiting enzyme involved in tryptophan catabolism that generates formyl-kyneurenine which can be further metabolized into a variety of AhR agonists (Higuchi and Hayaishi Arch Biochem Biophys 1967, Nguyen and Bradfield 2008, Zelante et al. 2014). […] To specifically identify these tryptophan derived products, IECs were cultured with deuterated L-trp (D5-Trp) and performed high performance liquid chromatography mass spectrometry (LC-MS) on lysates stimulated with oxazolone, TMO, frag-oz or TMC control (FIG. 5C). […] Taken together these latter studies are consistent with a model in which exposure of IECs to oxazole containing compounds leads to the activation of IDO1 and generation of tryptophan-derived metabolites that induce the AhR pathway to downregulate CD1d-restricted responses associated with the production of IL-10 (FIG. 6).

[7] = test system: MODE-K cells; assay: Surface CD1d loaded with α-GC (L363 antibody staining) in MODE-K cells; format: cell-based, mouse
Text: In light of the decreased MTP expression observed in oxazolone treated IECs (FIG. 1B) and given that MTP loss alters the ability of CD1d to acquire exogenous antigens, such as α-GC, and CD1d elicited IL-10 responses by epithelial cells (Dougan et al. 2005, Dougan et al. 2007, Zeissig et al 2017, Sagiv et al. 2007, Brozovic et al. 2004, Olszak et al. 2014), it was investigated whether CD1d expression and lipid loading on oxazolone conditioned IECs.

[8] = target: recombinant IDO1 (Homo sapiens, UniProt P14902); assay: Recombinant IDO1 conversion of L-tryptophan to formyl-kyneurenine; format: biochemical; conditions: compared to control (TMC) or vehicle
[9] = target: T1, aryl hydrocarbon receptor (AhR) (Mus musculus, UniProt P30561); assay: AhR firefly luciferase reporter in IECs; format: cell-based; conditions: compared to vehicle or 1,2,4-trimethylcyclopentane
T1 construct: IECs were transfected with an AhR firefly luciferase reporter; endogenous in cells; host or cells: MODE-K (mouse intestinal epithelial cell line)
T1 sequence (P30561 10-848): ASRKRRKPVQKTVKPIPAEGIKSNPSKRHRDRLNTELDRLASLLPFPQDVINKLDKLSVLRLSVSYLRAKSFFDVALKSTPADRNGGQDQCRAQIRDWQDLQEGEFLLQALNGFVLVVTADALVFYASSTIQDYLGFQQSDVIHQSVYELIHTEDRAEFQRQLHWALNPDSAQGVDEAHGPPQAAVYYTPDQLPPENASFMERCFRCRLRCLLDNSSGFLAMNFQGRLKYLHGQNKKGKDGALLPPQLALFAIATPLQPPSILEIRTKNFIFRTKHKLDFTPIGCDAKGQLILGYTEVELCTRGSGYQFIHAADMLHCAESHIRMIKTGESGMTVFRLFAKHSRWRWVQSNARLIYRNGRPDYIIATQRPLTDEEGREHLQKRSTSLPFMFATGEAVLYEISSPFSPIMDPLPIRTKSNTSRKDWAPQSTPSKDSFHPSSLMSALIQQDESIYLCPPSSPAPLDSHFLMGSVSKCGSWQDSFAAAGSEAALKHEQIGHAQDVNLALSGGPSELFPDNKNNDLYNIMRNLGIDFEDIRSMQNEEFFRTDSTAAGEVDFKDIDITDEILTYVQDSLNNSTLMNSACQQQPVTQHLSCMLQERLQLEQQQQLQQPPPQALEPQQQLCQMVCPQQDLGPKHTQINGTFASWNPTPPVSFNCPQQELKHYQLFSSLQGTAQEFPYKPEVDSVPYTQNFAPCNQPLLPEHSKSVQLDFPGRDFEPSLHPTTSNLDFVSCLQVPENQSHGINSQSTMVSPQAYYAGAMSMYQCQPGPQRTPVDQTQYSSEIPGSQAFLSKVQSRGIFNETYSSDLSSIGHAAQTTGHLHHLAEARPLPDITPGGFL

[10] = test system: IECs; assay: In vitro system to assess transcriptional and CD1d-restricted responses in IECs (FIG. 13 summary); format: cell-based
[11] = target: T2, AhR (Homo sapiens, UniProt P35869); conditions: Wambaugh et al. 2014, Dierickx 2004; cited from earlier work
T2 sequence (P35869 11-848): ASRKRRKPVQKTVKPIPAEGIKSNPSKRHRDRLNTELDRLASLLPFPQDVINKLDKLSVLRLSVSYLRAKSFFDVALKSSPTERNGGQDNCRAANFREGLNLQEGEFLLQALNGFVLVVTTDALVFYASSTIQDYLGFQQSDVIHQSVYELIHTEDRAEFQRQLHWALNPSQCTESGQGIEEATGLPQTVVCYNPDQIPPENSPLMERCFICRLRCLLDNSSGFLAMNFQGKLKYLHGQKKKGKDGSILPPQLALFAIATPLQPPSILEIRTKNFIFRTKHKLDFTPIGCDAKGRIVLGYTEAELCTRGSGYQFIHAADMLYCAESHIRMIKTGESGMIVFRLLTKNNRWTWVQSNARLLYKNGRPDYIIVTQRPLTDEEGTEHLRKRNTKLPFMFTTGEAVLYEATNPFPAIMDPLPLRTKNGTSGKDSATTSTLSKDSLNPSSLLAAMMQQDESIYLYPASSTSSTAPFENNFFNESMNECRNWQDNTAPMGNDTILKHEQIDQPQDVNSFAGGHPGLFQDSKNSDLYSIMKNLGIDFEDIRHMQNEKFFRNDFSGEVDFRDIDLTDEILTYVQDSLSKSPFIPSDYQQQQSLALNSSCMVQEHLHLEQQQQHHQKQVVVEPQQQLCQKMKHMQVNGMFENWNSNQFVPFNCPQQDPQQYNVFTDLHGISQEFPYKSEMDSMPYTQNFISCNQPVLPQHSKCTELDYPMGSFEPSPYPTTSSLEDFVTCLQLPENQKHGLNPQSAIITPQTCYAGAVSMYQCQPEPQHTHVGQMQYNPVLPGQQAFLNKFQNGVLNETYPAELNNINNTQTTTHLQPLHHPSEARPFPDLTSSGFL

[12] = MODE-K pre-conditioned with compound, loaded with α-GC, co-culture with 24.7 iNKT hybridoma
[13] = supplement alone or in conjunction with TMC stimulation
[14] = IEC enriched colonic fractions after intra-rectal administration
[15] = intra-rectal administration, wildtype

Chain of recombinant IDO1 (P14902 whole entry, species assumed): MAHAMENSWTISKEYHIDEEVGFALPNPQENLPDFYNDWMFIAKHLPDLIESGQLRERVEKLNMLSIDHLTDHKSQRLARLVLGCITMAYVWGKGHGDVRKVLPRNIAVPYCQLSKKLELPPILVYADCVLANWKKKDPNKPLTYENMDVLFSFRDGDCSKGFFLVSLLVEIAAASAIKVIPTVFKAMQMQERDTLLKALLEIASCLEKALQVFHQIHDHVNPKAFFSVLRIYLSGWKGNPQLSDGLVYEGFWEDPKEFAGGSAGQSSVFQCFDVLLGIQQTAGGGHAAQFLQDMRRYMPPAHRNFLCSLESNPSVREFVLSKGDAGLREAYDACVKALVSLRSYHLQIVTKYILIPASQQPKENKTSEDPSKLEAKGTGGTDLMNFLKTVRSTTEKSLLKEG

For `Cn1cc(C[C@@H](N)C(=O)O)c2ccccc21` (racemic) [DL-methyl tryptophan, reference compound], the “effect of the supplement on IEC responses to oxazolone (CD1d-restricted IL-10 production)” value [1] was “did not restore suppression”.

In the case of `CC1=NCCC1` [1-MP, 2-methyl-1-pyrroline, reference compound], the Cyp1a1 transcripts [2] is reported as “did not elicit any transcriptional changes” and the Mttp transcripts [2] is reported as “did not elicit any transcriptional changes”.

For `COC(=O)c1csc(C(=O)c2c[nH]c3ccccc23)n1` [ITE, 2-(H-Indol-3-carbonyl)-4-thiazolecarboxylic acid methyl ester, reference compound], the “CD1d-restricted IL-10 production” value [1, 12] was “did not modulate” and the Mttp transcripts [2] was “did not modulate”.

In the case of `N[C@@H](Cc1c[nH]c2ccccc12)C(=O)O` [L-Trp, L-tryptophan, reference compound], the “CD1d-restricted IL-10 production” value [1, 13] is reported as “had no effect” and the “effect of the supplement on IEC responses to oxazolone (CD1d-restricted IL-10 production)” value [1] is reported as “restored IEC responses to oxazolone”.

With `CC1CC(C)C(C)C1` (stereo not shown) [TMC, 1,2,4-trimethyl cyclopentane, reference compound] the Cyp1a1 transcripts [2] was “did not elicit any transcriptional changes” and the Mttp transcripts [2] was “did not elicit any transcriptional changes”.

In the case of `CC1=NC(C)OC1C` (stereo not shown) [TMO, 2,4,5-trimethyl-2,5-dihydro-1,3-oxazole], the “compound induced inhibition of IL-10 production in hepatocytes from Ahr−/− mice” value [3] is reported as “resistance”, the “Cyp1a1 transcripts in IEC in vivo” value [4, 14] is reported as “induction of cyp1a1” and the “Mttp transcripts in IEC in vivo” value [4, 14] is reported as “downregulation of Mttp”. For the same compound, the “Th1 and Th2 cytokines (IL-13, IFN-γ) from colon explants” value [4, 15] was “production of Th2 and Th1 cytokines including IL-13 and IFN-γ”, the colon length [4, 15] was “colon shortening” and the “histological pathology of the colon” value [4, 15] was “histological pathology characterized by superficial inflammation of the gut wall, neutrophil accumulation and ulceration of the epithelial layer of the colon”. For the same compound, the weight loss [4, 15] was “increased weight loss”, the “clinical symptoms, pathology, inflammation in CD1d-deficient animals” value ([4]; intra-rectal challenge, CD1d-deficient (KO) vs WT) was “no evidence of clinical symptoms or pathology” and the “effect of skin pre-sensitization with the other compound (oxazolone or TMO) on rectal responses” value ([4]; topical sensitization followed by intra-rectal challenge) was “did not affect”. For the same compound, the “detection in human urine” value [5] was “detected in human urine”, the “metabolite that D5-Trp was further metabolized to upon stimulation” value [6] was “xanthurenic acid” and the “compound induced inhibition of CD1d-restricted IL-10 production when AhR expression is silenced” value ([1]; AhR siRNA, IEC:iNKT cell co-cultures) was “reversed”. The “CD1d-restricted IL-10 production” value ([1]; IECs cultured in tryptophan-deficient media) was “no longer attenuated”, the “CD1d-restricted IL-10 production” value [1, 12] was “limited” and the IL-10 production ([1]; tryptophan-deficient conditions supplemented with kyneurenic acid) was “decreased IL-10 production”. For the same compound, the “decrease of IL-10 production when AhR was silenced” value ([1]; tryptophan-deficient conditions supplemented with kyneurenic acid, AhR siRNA) was “reduced when AhR was silenced”, the “CD1d-restricted IL-10 production” value ([1]; tryptophan-deficient media supplemented with exogenous L-tryptophan) was “attenuation of CD1d-restricted IL-10 production” and the Ido1 transcripts [2] was “induced expression of these genes in vitro and in vivo”. For the same compound, the Mttp transcripts [2] was “suppressed”, the “compound induced reduction of cell surface CD1d lipid antigen loading when AhR expression is silenced” value ([7]; AhR siRNA) was “reversed” and the “loading of α-GC on CD1d at the cell surface (L363 staining)” value ([7]; MODE-K cells conditioned with compound) was “decreased cell surface staining”. The “ability of IDO1 to convert tryptophan to formyl-kyneurenine” value [8] was “enhanced” and the AhR transcriptional activity [9] was “induced robust AhR transcriptional activity”.

For `O=C(O)c1cc(=O)c2ccccc2[nH]1` [kyneurenic acid, reference compound], the “CD1d-restricted IL-10 production” value [1, 13] was “had no effect”.

For `C=CC1(C)OC(=O)N(c2cc(Cl)cc(Cl)c2)C1=O` (stereo not shown) [vinclozolin], the “transcriptional and CD1d-restricted epithelial responses relative to oxazolone stimulation” value [10] was “phenocopied”, the Cyp1a1 transcripts [2] was “induced expression of these genes in vitro and in vivo” and the Ido1 transcripts [2] was “induced expression of these genes in vitro and in vivo”. For the same compound, the AhR activation [11] was “AhR activator”.
